Source: patent publication US20180179499A1, “BIOBASED PRODUCTION OF FUNCTIONALIZED ALPHA-SUBSTITUTED ACRYLATES AND C4-DICARBOXYLATES” (BIOAMBER INC., priority 2015, published 2018)

Key:
[1] = Dehydration of HM3HP to HMA at different temperature and pH (NMR); type: physicochemical; conditions: overnight
Experimental: In the case of the microorganism producing alpha-substituted 3-hydroxymethyl acid, such as in Examples 9 and 21, this compound is dehydrated to alpha-substituted acrylic acid. In one embodiment, alpha-hydroxymethyl 3-hydroxypropionic acid (HM3HP) is dehydrated to alpha-hydroxymethyl acrylic acid (HMA). A known amount of HM3HP was dissolved into buffered solution. […] Samples were incubated at −20° C., 30° C., or 70° C. overnight. NMR analysis was used to measure the amount of HM3HP that was dehydrated to HMA. […] The pH of the solution had more effect on conversion to HMA than did changes in temperature.

E coli = experiment: Host tolerance to hydroxymethyl-3HP, relative OD after 24 hours; type: cell-based; conditions: 24 hours incubation at 30° C.
Experimental: (§1) FIG. 33(a) presents comparative tolerance data of potential host organisms to 3-hydroxymethyl 3-hydroxypropionic acid (HM3HP) where Km=K. marxianus, Sc=S. cerevisiae, Ec=E. coli (from Example 17). Within each grouping, the right bar represents Ec, the left bar represents Km, and the middle bar represents Sc.
(§2) Two eukaryotic strains, I. orientalis and S. cerevisiae, were tested for tolerance to the selected compounds at pH 3 and pH 5. The bacterial strains were grown at their individual optimal conditions, E coli and C. glutamicum at pH 8 and 30° C., and B. firmus and B. cohnii at pH 9 and 37° C. I. orientalis was grown in defined yeast media consisting of 5 g/L ammonium sulfate, 0.5 g/L magnesium sulfate heptahydrate, 3 g/L potassium phosphate monobasic, 10 g/L dextrose, 1 mL/L of 10% glycerol stock, 1 mL/L of 1000× trace. The 1000× trace stock solution contains 4 g/L ZnSO4.7H2O, 2 g/L FeSO4.7H2O, 1 g/L MnSO4.H2O, 0.2 g/L CuSO4.5H2O, and 0.8 mL/L H2SO4. S. cerevisiae was grown in buffered defined dextrose media consisting of 50 g/L dextrose, 5 g/L yeast extract, and 40 mL/L 25×DM salts. The 25×DM salt stock solution contains 125 g/L ammonium sulfate, 12.5 g/L magnesium sulfate heptahydrate, 75 g/L potassium phosphate monobasic, and 787.5 g/L water. The bacterial strains were grown in standard LB media consisting of 10 g/L bacto-tryptone, 5 g/L yeast extract, 10 g/L NaCl, and 20 g/L dextrose with addition of 20 g/L glucose.
(§3) In one embodiment, alpha substituted 3-hydroxypropionic acid is produced by the host organism. In a specific embodiment, alpha hydroxymethyl 3-hydroxypropionic acid is produced by the host organism. To evaluate host organisms, the protocol described above was used. The relative OD at the end of 24 hours incubation at 30° C. was compared for Kluyveromyces marxianus, S. cerevisiae, and E coli in the presence of different amounts of hydroxymethyl-3HP (FIG. 33(a)).

S. cerevisiae = experiment: as above; type: cell-based; conditions: 24 hours incubation at 30° C.
Experimental: as §1, §2, §3

Kluyveromyces marxianus = experiment: as above; type: cell-based; conditions: K. marxianus, 24 hours incubation at 30° C.
Experimental: as §1, §2, §3

O=C(O)C(CO)CO [alpha-hydroxymethyl 3-hydroxypropionic acid]
Relative HMA levels ([1]; pH 3, 30 C.): 0.00 | Relative HMA levels ([1]; pH 3, 70 C.): 0.00 | Relative HMA levels ([1]; pH 3, −20 C.): 0.00 | Relative HMA levels ([1]; pH 7, 30 C.): 0.13 | Relative HMA levels ([1]; pH 7, 70 C.): 0.18 | Relative HMA levels ([1]; pH 7, −20 C.): 0.13 | Relative HMA levels ([1]; pH 10, 30 C.): 1.18 | Relative HMA levels ([1]; pH 10, 70 C.): 1.00 | Relative HMA levels ([1]; pH 10, −20 C.): 0.81 | Tolerated concentration (E coli): at least 60 g/L | Tolerated concentration (S. cerevisiae): at least 60 g/L | Tolerated concentration (Kluyveromyces marxianus): at least 60 g/L
